The values that follow are results of earlier work, collected in paper PMC7111419 (European Journal of Medicinal Chemistry, 2019).

Where two headings read alike, the source gives them in different places.

One data set deals with βGLU. The conditions noted are these: cited from earlier work.
The next data set has as its system E. coli cells. The conditions noted are these: 100 μM; cited from earlier work.
For the next data set, the system named is human liver-derived βGLU. The conditions noted are these: 1 mM; cited from earlier work.
A further data set concerns βGLU in breast milk. The conditions noted are these: 10 μM; cited from earlier work.
The test system of another data set is female Wistar rats. The conditions noted are these: i.p. pre or cotreatment, 3 mg/ml, 10 mg/ml or 10 mg/0.5 ml, 6 days; cited from earlier work.
The subject of a further data set is SENCAR mice. The conditions noted are these: cited from earlier work.
The subject of a further data set is male albino Wistar rats. The conditions noted are these: 7.5 mg/kg body weight/day intragastric, 7 days; cited from earlier work.
The subject of a further data set is rat neutrophils. The conditions noted are these: read-out: IC50, βGLU release; cited from earlier work.
Another data set concerns salivary βGLU. The conditions noted are these: 16 subjects with aggressive periodontitis; cited from earlier work.

For the compound `O=C(Cn1c(-c2ccccn2)nc2ccccc21)c1ccc(Cl)cc1` [Compound 4-Cl], the IC50 (commonly the midpoint of a concentration-inhibition curve) with βGLU was 32.1 µM. Further, in the data set on E. coli cells, the “cytotoxicity to E. coli cells” value is “cytotoxicity”.
Turning to `O=C(O)[C@@H](O)[C@H]1OC(=O)[C@H](O)[C@H]1O` [Compound 5, D-saccharic acid-1,4-lactone], in the data set on βGLU (value recurrent in literature), the IC50 was roughly 40 µM. Further, the “inhibition of hydrolytic action on quercetin glucuronides” value in the data set on human liver-derived βGLU is given as “completely inhibited”. In addition, in the data set with βGLU in breast milk, the “inhibition of βGLU in breast milk” value is reported as “over 90%”. Also, the “severity of CPT-11 induced small-intestine mucosal damage” value in the data set with female Wistar rats is listed as “reduced the severity”. Besides, the “reduction of DMBA-induced oxidative DNA damage and mutations in codon 61 of Ha-ras gene” value with SENCAR mice is “up to 78%”.
For `Cc1ccc(C(C)C)c(O)c1` [Compound 54, thymol], in the data set on male albino Wistar rats, the “activities of lysosomal enzymes (βGLU, β-galactosidase, cathepsin B and D) in serum and heart” value is “potently inhibited to near-normal”.
`C[C@@H]1C(=O)O[C@H]2[C@H](O)[C@@]34[C@H]5C[C@@H](C(C)(C)C)[C@]36[C@@H](OC(=O)[C@@H]6O)O[C@@]4(C(=O)O5)[C@@]12O` [ginkgolide B]: the IC50 in the data set with rat neutrophils was 6.63 µM.
As to doxycycline hyclate, the “effect on salivary βGLU activity” value in the data set on salivary βGLU is “inefficient”.
